Results: patent US6906205B2, “Spiro and dispiro 1,2,4-trioxolane antimalarials” (Medicines for Malaria Venture MMV, priority 2002, dated 2005)

Tested on: ANKA strain of P. berghei
Test: single dose STI in vivo screen in infected mice
Parameters: species or system Plasmodium berghei
Settings: for Activity (%) po / Activity (%) sc / Activity (%) SSVpo / Activity (%) 3 mg/kg SSV po / Activity (%) 10 mg/kg SSV po: percent reduction in parasitemia day 3 post-infection; for Activity (%) po / Survival (days) po: single 10 mg/kg po in 3% ethanol and 7% Tween 80; for Activity (%) po / Activity (%) sc / Activity (%) SSVpo: mice; for Activity (%) sc / Survival (days) sc: single 10 mg/kg sc in 3% ethanol and 7% Tween 80; for Survival (days) po / Survival (days) sc / Survival (days) SSVpo: untreated control 5.6 ± 0.3; for Activity (%) SSVpo: single po dose in standard suspending vehicle (SSV); for Survival (days) SSVpo: single po dose in SSV; for Activity (%) 3 mg/kg SSV po: single 3 mg/kg po in SSV; for Activity (%) 10 mg/kg SSV po / Survival (days) 10 mg/kg SSV po: single 10 mg/kg po in SSV
Method: In the single dose STI in vivo screen, Moro SPF or NMRI mice infected with the ANKA strain of P. berghei (groups of 3-5 mice) were treated on day one post-infection with trioxolanes dissolved or suspended in 3% ethanol and 7% Tween 80. […] SSV consists of 0.5% w/v CMC, 0.5% v/v benzyl alcohol, 0.4% v/v Tween 80, and 0.9% w/v sodium chloride in water. Antimalarial activity was measured by percent reduction in parasitemia on day three post-infection and survival times compared to an untreated control group. Survival to day 30 post-infection is considered to be a cure. […] Other factors influencing antimalarial activity include the stability of carbon radicals formed by β-scission subsequent to the initial electron transfer to the peroxide bond and the influence of steric effects remote from the peroxide bond on the interactions between carbon radicals and potential drug targets.

Row | Structure (SMILES) | Activity (%) po | Activity (%) sc | Survival (days) po | Survival (days) sc | Activity (%) SSVpo | Survival (days) SSVpo | Activity (%) 3 mg/kg SSV po | Activity (%) 10 mg/kg SSV po | Survival (days) 10 mg/kg SSV po
1 | CCOC(=O)CCC1CCCCC12OOC1(O2)C2CC3CC(C2)CC1C3 (centres unmarked) [OZ08] | 99.7% | 99.9% | 8.0 days | 9.7 days | – | – | – | – | –
2 | FC(F)(F)c1cccc(C2(c3cccc(C(F)(F)F)c3)OOC3(O2)C2CC4CC(C2)CC3C4)c1 (centres unmarked) [OZ46] | 99% | 62% | 7.7 days | 6.0 days | – | – | – | – | –
3 | FC(F)(F)c1ccc(C2CCC3(CC2)OOC2(O3)C3CC4CC(C3)CC2C4)cc1 (centres unmarked) [OZ48] | 99.8% | 42% | 8.7 days | 6.3 days | – | – | – | – | –
4 | CCOC(=O)CCC(=O)N1CCC2(CC1)OOC1(O2)C2CC3CC(C2)CC1C3 (centres unmarked) [OZ53] | 9% | 58% | 6.0 days | 6.3 days | – | – | – | – | –
5 | O=C(C[n+]1ccccc1)NN=C1CCC2(CC1)OOC1(O2)C2CC3CC(C2)CC1C3.[Cl-] (centres unmarked) [OZ55] | 45% | 97% | 6.0 days | 7.3 days | – | – | – | – | –
6 | O=C(c1ccncc1)N1CCC2(CC1)OOC1(O2)C2CC3CC(C2)CC1C3 (centres unmarked) [OZ100] | 61% | 80% | 6.7 days | 7.0 days | 36% | 6.3 days | – | – | –
7 | O=C(COc1ccc(Cl)cc1)N1CCC2(CC1)OOC1(O2)C2CC3CC(C2)CC1C3 (centres unmarked) [OZ101] | 44% | 99.97% | 6.3 days | 13 days | 0% | 5.3 days | – | – | –
8 | O=C(Nc1ccccc1)N1CCC2(CC1)OOC1(O2)C2CC3CC(C2)CC1C3 (centres unmarked) [OZ102] | 92% | 99.97% | 7.0 days | 19.7 days | 73% | 6.7 days | – | – | –
9 | CC(C)(O)[C@H]1CC[C@]2(CC1)OOC1(O2)C2CC3CC(C2)CC1C3 (some centres unmarked) [OZ108] | 0/0/0% | 0/0/0% | – | – | 0/0/0% | 5.0 days | – | – | –
10 | OC[C@H]1CC[C@]2(CC1)OOC1(O2)C2CC3CC(C2)CC1C3 (some centres unmarked) [OZ119] | – | – | – | – | – | 8.0 days | – | – | –
11 | O=C1c2ccccc2C(=O)N1[C@H]1CC[C@]2(CC1)OOC1(O2)C2CC3CC(C2)CC1C3 (some centres unmarked) [OZ136] | 0/0/0% | 0/0/0% | 6.0/6.0/6.0 days | 6.0/6.0/6.0 days | 0/0/0% | 6.0/6.0/6.0 days | – | – | –
12 | N[C@H]1CC[C@]2(CC1)OOC1(O2)C2CC3CC(C2)CC1C3 (some centres unmarked) [OZ137] | 0% | 61% | – | – | 6% | 6.3 days | – | – | –
13 | Cc1ccc(NC(=O)N2CCC3(CC2)OOC2(O3)C3CC4CC(C3)CC2C4)cc1 (centres unmarked) [OZ142] | 0% | 99.98% | 6.0 days | 14.3 days | 2% | 6.3 days | – | – | –
14 | O=C1c2ccccc2C(=O)N1C[C@H]1CC[C@]2(CC1)OOC1(O2)C2CC3CC(C2)CC1C3 (some centres unmarked) [OZ146] | 62% | 91% | – | – | 40% | 6.3 days | – | – | –
15 | O=C(N1CCOCC1)N1CCC2(CC1)OOC1(O2)C2CC3CC(C2)CC1C3 (centres unmarked) [OZ188] | 93% | 99.87% | 8.7 days | 9.0 days | 98% | 10.0 days | – | – | –
16 | O=C(Nc1ccc(Cl)cc1)N1CCC2(CC1)OOC1(O2)C2CC3CC(C2)CC1C3 (centres unmarked) [OZ192] | 38% | 99.98% | 6.0 days | 13.7 days | 45% | 7.0 days | – | – | –
17 | O=C(NC[C@H]1CC[C@]2(CC1)OO[C@]1(O2)C2CC3CC(C2)CC1C3)N1CCOCC1 [OZ272] | – | – | – | – | – | – | 49% | 98% | –
18 | O=C(NC[C@H]1CC[C@]2(CC1)OOC1(O2)C2CC3CC(C2)CC1C3)c1ccccc1O (some centres unmarked) [OZ280] | – | – | – | – | – | – | – | 0/ND % | 5.7ND days
19 | O=C(NC[C@H]1CC[C@]2(CC1)OOC1(O2)C2CC3CC(C2)CC1C3)c1ccc(O)nc1 (some centres unmarked) [OZ282] | – | – | – | – | – | – | 53% | – | 8.3 days
20 | Nc1ncccc1C(=O)NC[C@H]1CC[C@]2(CC1)OOC1(O2)C2CC3CC(C2)CC1C3 (some centres unmarked) [OZ284] | – | – | – | – | – | – | 61% | 97% | 9.0 days
21 | CCNC(=O)NC[C@H]1CC[C@]2(CC1)OO[C@]1(O2)C2CC3CC(C2)CC1C3 [OZ291] | – | – | – | – | – | – | 34% | 98% | 8.0 days
22 | c1cncc(NC[C@H]2CC[C@]3(CC2)OO[C@]2(O3)C3CC4CC(C3)CC2C4)c1 [OZ293] | – | – | – | – | – | – | 77% | – | 8.8 days
23 | NS(=O)(=O)c1ccc(NC[C@H]2CC[C@]3(CC2)OO[C@]2(O3)C3CC4CC(C3)CC2C4)cc1 [OZ298] | – | – | – | – | – | – | 98% | 99.95% | 9.4 days
24 | O=CN1CCN(C[C@H]2CC[C@]3(CC2)OO[C@]2(O3)C3CC4CC(C3)CC2C4)CC1 [OZ303] | – | – | – | – | – | – | 69% | 99.01% | 8.6 days
25 | O=C(NC[C@H]1CC[C@]2(CC1)OO[C@]1(O2)C2CC3CC(C2)CC1C3)c1ccccn1 [OZ304] | – | – | – | – | – | – | 61% | 98% | 8.2 days
